Active and inactive are the calls of the source. No cut-off for these calls is given here.
Experiments:
Cell membrane [1] = test: Induction of mitochondrial membrane depolarization in human A549 cells assessed as increases in mitochondrial Ca2+ concentration incubated for 8 hrs by Rhod-2 AM probe based flow cytometric analysis; type: cell membranes
A549 [2] = test: Induction of lipid ROS accumulation in human A549 cells at 20 uM incubated for 24 hrs in presence of NAC by DCFH/C11-BODIPY probe based flow cytometric analysis; type: functional, cell-based
A549 [3] = test: Induction of ferroptosis in human A549 cells assessed as increase in malondialdehyde content at 5 to 20 uM; type: functional, cell-based; conditions: dose 5-20 µM
A549 [4] = test: Induction of autophagy in human A549 cells incubated for 12 hrs by MDC staining based flow cytometric analysis; type: functional, cell-based
[5] = Selectivity index, ratio of IC50 for cytotoxicity against human BEAS-2B cells to IC50 for antiproliferative activity against human A549 cells; type: toxicity, cell-based; conditions: read-out: Ratio IC50
A549 [6] = test: Induction of ferroptosis in human A549 cells assessed as increase in […] accumulation; type: functional, cell-based
A549 [7] = test: Induction of autophagy in human A549 cells assessed as effect on LC3II protein expression upto 20 uM incubated for 24 hrs by Western blot analysis; type: functional, cell-based
A549 [8] = test: Induction of lipid ROS accumulation in human A549 cells at 20 uM incubated for 24 hrs in presence of DFO by DCFH/C11-BODIPY probe based flow cytometric analysis; type: functional, cell-based
A549 [9] = test: Stabilization of […] in human A549 cells assessed as reduction in polyubiquitination at 20 uM in presence of MG132 by immunoprecipitation analysis; type: cell-based
A549 [10] = test: Activation of Nrf2-Keap1-HO-1 signaling pathway in human A549 cells assessed as increase in oxidative stress by measuring lipid ROS level at 5 to 20 uM by Western blot analysis; type: cell-based; conditions: filed as activator, dose 5-20 µM
A549 [11] = test: Induction of TMBIM6-VDAC1 protein-protein interaction in human A549 cells at 20 uM by immunoprecipitation analysis; type: cell-based; conditions: filed as activator
A549 [12] = test: Induction of autophagy in human A549 cells assessed as effect on PINK1 protein expression upto 20 uM incubated for 24 hrs by Western blot analysis; type: functional, cell-based
A549 [13] = test: Induction of ROS accumulation in human A549 cells at 20 uM by DCFH/C11-BODIPY probe based flow cytometric analysis; type: functional, cell-based; conditions: time 2-24 hrs, TDE = time-dependent effect
A549 [14] = test: Induction of lipid ROS accumulation in human A549 cells at 20 uM incubated for 24 hrs in presence of Fer-1 by DCFH/C11-BODIPY probe based flow cytometric analysis; type: functional, cell-based
A549 [15] = test: Downregulation of TMBIM6 protein expression in human A549 cells at 10 uM by Western blot analysis; type: functional, cell-based
A549 [16] = test: Induction of ferroptosis in human A549 cells assessed as reduction in GSH content incubated for 2 to 12 hrs; type: functional, cell-based; conditions: time 2-12 hrs
[17] = target: Bax inhibitor 1 (Homo sapiens) (UniProt P55061); test: Binding affinity to TMBIM6 in human A549 cells by cluster analysis; type: cell-based
Chain of Bax inhibitor 1 (Homo sapiens) (P55061 whole entry): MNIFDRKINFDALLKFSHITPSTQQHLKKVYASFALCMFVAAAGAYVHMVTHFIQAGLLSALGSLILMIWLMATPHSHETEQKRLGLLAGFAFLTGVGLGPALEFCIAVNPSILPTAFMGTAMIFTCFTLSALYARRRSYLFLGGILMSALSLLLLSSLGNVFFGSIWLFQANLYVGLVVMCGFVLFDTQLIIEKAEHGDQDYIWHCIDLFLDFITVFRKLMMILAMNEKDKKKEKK

NCI-H460 = test: Antiproliferative activity against human NCI-H460 cells assessed as inhibition of cell growth incubated for 24 to 72 hrs by CCK8 assay; type: functional, cell-based
[18] = target: Non-selective voltage-gated ion channel VDAC1 (Homo sapiens) (UniProt P21796); test: Activation of VDAC1 channel in human A549 cells assessed as increase in mitochondrial Ca2+ endocytosis by staining based analysis; type: cell-based; conditions: filed as opener
Chain of Non-selective voltage-gated ion channel VDAC1 (Homo sapiens) (P21796 whole entry): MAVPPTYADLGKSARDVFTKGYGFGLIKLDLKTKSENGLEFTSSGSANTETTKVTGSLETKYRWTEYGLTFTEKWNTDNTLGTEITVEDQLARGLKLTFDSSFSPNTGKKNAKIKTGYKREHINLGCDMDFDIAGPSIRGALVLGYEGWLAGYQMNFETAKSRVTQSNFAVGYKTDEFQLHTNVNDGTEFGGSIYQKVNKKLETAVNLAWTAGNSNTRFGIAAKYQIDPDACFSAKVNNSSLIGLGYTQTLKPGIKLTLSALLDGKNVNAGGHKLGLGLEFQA

Cell membrane [19] = test: Induction of mitochondrial membrane depolarization in human A549 cells assessed as increases in mitochondrial Ca2+ concentration by Rhod-2 AM probe based flow cytometric analysis; type: cell membranes
[20] = target: Bax inhibitor 1 (Homo sapiens) (UniProt P55061); test: Thermal stabilization of TMBIM6 in human A549 cells at 54 to 60 degreeC at 100 uM incubated for 2 hrs by CETSA based Western blot analysis; type: cell-based
A549 [21] = test: Antiproliferative activity against human A549 cells assessed as inhibition of cell growth incubated for 48 hrs by CCK8 assay; type: functional, cell-based; conditions: A549, 48 h
A549 [22] = test: Induction of lipid ROS accumulation in human A549 cells at 20 uM incubated for 24 hrs in presence of Lip-1 by DCFH/C11-BODIPY probe based flow cytometric analysis; type: functional, cell-based
HepG2 = test: Antiproliferative activity against human HepG2 cells assessed as inhibition of cell growth incubated for 24 to 72 hrs by CCK8 assay; type: functional, cell-based
[23] = target: Bax inhibitor 1 (Homo sapiens) (UniProt P55061); test: Thermal stabilization of TMBIM6 in human A549 cells at 46 to 60 degreeC at 100 uM incubated for 2 hrs by CETSA based Western blot analysis; type: cell-based
A549 [24] = test: Antiproliferative activity against human A549 cells assessed as inhibition of cell growth incubated for 24 to 72 hrs by CCK8 assay; type: functional, cell-based
A549 [25] = test: Increase in Ca2+ level in human A549 cell cytoplasm at 5 to 20 uM incubated for 8 hrs by confocal photographic analysis; type: functional, cell-based; conditions: dose 5-20 µM
A549 [26] = test: Antiproliferative activity against human A549 cells assessed as inhibition of cell growth incubated for 24 hrs by CCK8 assay; type: functional, cell-based; conditions: A549, 24 h
[27] = target: T1, Cystine/glutamate transporter (Homo sapiens) (UniProt Q9UPY5); test: Inhibition of SLC7A11 in human […] cells at 5 to 20 uM by Western blot analysis; type: cell-based; conditions: A549, dose 5-20 µM
T1 sequence (whole entry): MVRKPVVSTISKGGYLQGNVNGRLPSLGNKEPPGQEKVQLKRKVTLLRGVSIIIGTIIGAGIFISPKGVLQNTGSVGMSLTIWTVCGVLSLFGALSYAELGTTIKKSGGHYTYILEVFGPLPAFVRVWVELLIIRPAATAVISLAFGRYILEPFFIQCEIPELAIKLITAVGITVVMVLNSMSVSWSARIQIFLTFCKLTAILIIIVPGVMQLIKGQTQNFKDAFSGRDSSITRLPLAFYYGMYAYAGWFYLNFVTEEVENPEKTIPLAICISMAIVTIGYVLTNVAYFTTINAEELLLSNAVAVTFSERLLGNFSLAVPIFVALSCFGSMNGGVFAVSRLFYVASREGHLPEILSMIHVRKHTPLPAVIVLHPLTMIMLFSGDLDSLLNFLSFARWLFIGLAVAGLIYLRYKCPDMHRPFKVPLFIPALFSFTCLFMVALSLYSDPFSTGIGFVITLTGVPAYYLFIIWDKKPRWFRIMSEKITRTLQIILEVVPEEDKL

A549 [28] = test: Induction of ROS accumulation in human A549 cells incubated for 24 hrs by DCFH/C11-BODIPY probe based flow cytometric analysis; type: functional, cell-based; conditions: dose 5-20 µM
[29] = target: Bax inhibitor 1 (Homo sapiens) (UniProt P55061); test: Competitive binding affinity to TMBIM6 in human A549 cells assessed as reduction in 13-oxyingenol dodecanoate binding to protein at 4 uM in presence of 6 fold 13-oxyingenol dodecanoate by pull down Western blot analysis; type: cell-based
[30] = target: Bax inhibitor 1 (Homo sapiens) (UniProt P55061); test: Competitive binding affinity to TMBIM6 in human A549 cells in presence of 2 to 6 fold of 13-oxyingenol dodecanoate by immunofluorescence analysis; type: cell-based
[31] = target: Bax inhibitor 1 (Homo sapiens) (UniProt P55061); test: Binding affinity to TMBIM6 in human A549 cells assessed as increase in co-localization in cytoplasm at 4 uM by immunofluorescence analysis; type: cell-based
[32] = target: Bax inhibitor 1 (Homo sapiens) (UniProt P55061); test: Binding affinity to TMBIM6 in human A549 cells at 4 uM by pull down Western blot analysis; type: cell-based
[33] = target: Bax inhibitor 1 (Homo sapiens) (UniProt P55061); test: Binding affinity to TMBIM6 at Met-68 residue in human A549 cells by high-resolution mass spectrometric analysis; type: cell-based
A549 [34] = test: Induction of ferroptosis in human A549 cells assessed as increase in malondialdehyde content; type: functional, cell-based
A549 [35] = test: Induction of autophagy in human A549 cells assessed as effect on LC3II protein expression at 10 to 20 uM incubated for 24 hrs by Western blot analysis; type: functional, cell-based; conditions: dose 10-20 µM
A549 [36] = test: Induction of autophagy in human A549 cells assessed as effect on PINK1 protein expression at 10 to 20 uM incubated for 24 hrs by Western blot analysis; type: functional, cell-based; conditions: dose 10-20 µM
[37] = target: T1, Cystine/glutamate transporter (Homo sapiens); test: Inhibition of SLC7A11 in human […] cells at 10 to 20 uM by Western blot analysis; type: cell-based; conditions: A549, dose 10-20 µM
Cell membrane [38] = test: Induction of mitochondrial membrane potential loss in human A549 cells at 10 to 20 uM incubated for 6 hrs by JC-1 staining based flow cytometric analysis; type: cell membranes; conditions: dose 10-20 µM
A549 [39] = test: Activation of Nrf2-Keap1-HO-1 signaling pathway in human A549 cells assessed as increase in oxidative stress by measuring lipid ROS level at 10 to 20 uM by Western blot analysis; type: cell-based; conditions: filed as activator, dose 10-20 µM

Activity (Cell membrane [1])	IC50 (NCI-H460) [µM]	Activity [18]	Activity (Cell membrane [19])	Activity [20]	IC50 (HepG2) [µM]	Activity [23]	IC50 (A549 [24]) [µM]	inhibition [37]	Activity (Cell membrane [38])	Compound	selectivity ratio [5]	Activity (A549 [6])	Activity (A549 [11])	Activity (A549 [15])	Activity (A549 [16])	Activity (A549 [25])	Activity (A549 [34])	Activity (A549 [35])	Activity (A549 [36])	Activity (A549 [39])	also measured
Active	20.8	Active	Active	Active	21.1	Active	2.6	Active	Active	CCCCCCCCCCCC(=O)O[C@@]12C[C@@H](C)[C@]34C=C(C)[C@H](OC(=O)c5ccc(F)cc5)[C@@]3(O)[C@H](O)C(CO)=C[C@H](C4=O)[C@@H]1C2(C)C	19.8	Active	Active	Active	Active	Active	Active	Active	Active	Active	
Active	8.5	Active	Active	Active	21.4	Active	4.7	Active	Active	CCCCCCCCCCCC(=O)O[C@@]12C[C@@H](C)[C@]34C=C(C)[C@H](OC(=O)NCCC)[C@@]3(O)[C@H](O)C(CO)=C[C@H](C4=O)[C@@H]1C2(C)C	10.6	Active	Active	Active	Active	Active	Active	Active	Active	Active	

The remaining lines, values behind:

Compound	Activity (Cell membrane [1])	IC50 (NCI-H460) [µM]	Activity [18]	Activity (Cell membrane [19])	Activity [20]	IC50 (HepG2) [µM]	Activity [23]	IC50 (A549 [24]) [µM]	inhibition [37]	Activity (Cell membrane [38])	selectivity ratio [5]	Activity (A549 [6])	Activity (A549 [11])	Activity (A549 [15])	Activity (A549 [16])	Activity (A549 [25])	Activity (A549 [34])	Activity (A549 [35])	Activity (A549 [36])	Activity (A549 [39])	also measured
CCCCCCCCCCCC(=O)O[C@@]12C[C@@H](C)[C@]34C=C(C)[C@H](O)[C@@]3(O)[C@H](O)C(CO)=C[C@H](C4=O)[C@@H]1C2(C)C	Active	7	Active	Active	Active	5.3	Active	3.9			11.1	Active	Active	Active	Active	Active					Activity (A549 [2]): inactive; Activity (A549 [3]): Active; Activity (A549 [4]): Dose-Dependent Effect; Activity (A549 [7]): Active; Activity (A549 [8]): inactive; Activity (A549 [9]): Active; Activity (A549 [10]): Active; Activity (A549 [12]): Active; Activity (A549 [13]): Tde; Activity (A549 [14]): inactive; Activity [17]: Active; IC50 (A549 [21]): 17.5 µM; Activity (A549 [22]): inactive; IC50 (A549 [26]): 8.67 µM; inhibition [27]: Active; Activity (A549 [28]): Dose-Dependent Effect
C#CCCC1(CCNC(=O)O[C@H]2C(C)=C[C@]34C(=O)[C@@H](C=C(CO)[C@@H](O)[C@]23O)[C@@H]2C(C)(C)[C@]2(OC(=O)CCCCCCCCCCC)C[C@H]4C)N=N1																					Activity [29]: Active; Activity [30]: Active; Activity [31]: Active; Activity [32]: Active; Activity [33]: Active; IC50 (A549 [21]): 13.8 µM; IC50 (A549 [26]): 8.1 µM
CCCCCCCCCCCC(=O)O[C@@]12C[C@@H](C)[C@]34C=C(C)[C@H](OC(=O)c5ccc([N+](=O)[O-])cc5)[C@@]3(O)[C@H](O)C(COC(=O)c3ccc([N+](=O)[O-])cc3)=C[C@H](C4=O)[C@@H]1C2(C)C	Active	1	Active	Active	Active	> 50	Active	6.1	Active	Active	8.2	Active	Active	Active	Active	Active	Active	Active	Active	Active	

— ChEMBL document CHEMBL5576041, “13-oxyingenol dodecanoate derivatives induce mitophagy and ferroptosis through targeting TMBIM6 as potential anti-NSCLC agents” (Eur J Med Chem, 2024)
